Legend:
Assay type in all cases: biochemical
Settings in all cases: 20 nM
PDE4B1 = target: T1, PDE4B1 (Homo sapiens, UniProt Q07343); assay: PDE4 inhibitory activity assay (FAM-cAMP enzymatic reaction), PDE4B1
T1 construct: purchased BPS 60041
Procedure: (§1) The compounds of the present disclosure were tested for their inhibitory activity (IC50 value) against PDE4A1A, PDE4B1, and PDE4D2.
(§2) Positive compound: Trequinsin (Sigma, Cat No. T20S7).
(§3) Instrument: Wallac Victor Muti-lable counter (Pekin Elmer) Steps of assay:
(§4) PDE enzymatic reaction; • 1) PDE was dissolved in 1× reaction solution to prepare 2× enzyme solution; • 2) FAM-cAMP was dissolved in 1× reaction solution to prepare 2× substrate solution; • 3) Corresponding volume of the compound in DMSO was transferred to the reaction plate through Echo 550; • 4) 2× enzyme solution was added into the corresponding wells of the reaction plate and incubated with the compound solution for 15 minutes at room temperature; • 5) 2× substrate solution was added into the corresponding well of the reaction plate to initiate the reaction; • 6) After the reaction plate was incubated at room temperature for 30 min, the reaction was terminated by adding reaction stopping solution. The reaction plate was incubated at room temperature for another 60 minutes;
(§5) Inhibition rates were calculated with Excel; and IC50 for each compound was calculated with Graphpad prism.

PDE4D2 = PDE4D2 (Homo sapiens, UniProt Q08499); assay: PDE4 inhibitory activity assay (FAM-cAMP enzymatic reaction), PDE4D2
Chain of PDE4D2 (Q08499 303-809): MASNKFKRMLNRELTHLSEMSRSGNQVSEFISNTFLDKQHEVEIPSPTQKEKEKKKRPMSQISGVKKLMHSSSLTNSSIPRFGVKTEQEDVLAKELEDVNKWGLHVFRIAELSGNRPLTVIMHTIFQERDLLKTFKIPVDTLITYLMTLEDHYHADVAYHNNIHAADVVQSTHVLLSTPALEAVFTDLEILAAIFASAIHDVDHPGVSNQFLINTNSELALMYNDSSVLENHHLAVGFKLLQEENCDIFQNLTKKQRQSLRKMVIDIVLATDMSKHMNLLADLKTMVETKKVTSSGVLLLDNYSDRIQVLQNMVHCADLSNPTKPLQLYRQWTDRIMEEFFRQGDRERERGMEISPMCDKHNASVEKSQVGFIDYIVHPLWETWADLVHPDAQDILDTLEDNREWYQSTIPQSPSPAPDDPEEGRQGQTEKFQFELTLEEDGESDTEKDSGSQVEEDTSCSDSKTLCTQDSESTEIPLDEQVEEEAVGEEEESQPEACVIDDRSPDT
Procedure: as §1, §2, §3, §4, §5

PDE4A1A = target: T2, PDE4A1A (Homo sapiens, UniProt P27815); assay: PDE4 inhibitory activity assay (FAM-cAMP enzymatic reaction), PDE4A1A
T2 construct: purchased BPS 60040
T2 sequence (P27815 1-647 isoform P27815-4): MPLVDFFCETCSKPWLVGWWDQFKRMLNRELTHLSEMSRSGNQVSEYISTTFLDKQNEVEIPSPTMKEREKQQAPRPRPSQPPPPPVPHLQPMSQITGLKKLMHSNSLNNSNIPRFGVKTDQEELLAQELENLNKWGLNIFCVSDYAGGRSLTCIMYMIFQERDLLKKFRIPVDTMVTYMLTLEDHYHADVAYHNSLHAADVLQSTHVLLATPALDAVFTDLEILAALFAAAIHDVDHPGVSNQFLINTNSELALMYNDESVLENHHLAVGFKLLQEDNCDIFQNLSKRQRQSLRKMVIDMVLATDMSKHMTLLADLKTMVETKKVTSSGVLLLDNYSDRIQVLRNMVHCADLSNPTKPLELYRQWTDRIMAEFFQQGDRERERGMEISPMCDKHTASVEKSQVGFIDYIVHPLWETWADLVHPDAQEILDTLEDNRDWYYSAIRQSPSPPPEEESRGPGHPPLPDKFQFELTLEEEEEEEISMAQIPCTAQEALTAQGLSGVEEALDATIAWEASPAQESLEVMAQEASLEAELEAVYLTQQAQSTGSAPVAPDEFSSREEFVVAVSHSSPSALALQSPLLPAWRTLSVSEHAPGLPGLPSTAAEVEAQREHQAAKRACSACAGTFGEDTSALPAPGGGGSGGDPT
Procedure: as §1, §2, §3, §4, §5

T1 sequence (Q07343 whole entry): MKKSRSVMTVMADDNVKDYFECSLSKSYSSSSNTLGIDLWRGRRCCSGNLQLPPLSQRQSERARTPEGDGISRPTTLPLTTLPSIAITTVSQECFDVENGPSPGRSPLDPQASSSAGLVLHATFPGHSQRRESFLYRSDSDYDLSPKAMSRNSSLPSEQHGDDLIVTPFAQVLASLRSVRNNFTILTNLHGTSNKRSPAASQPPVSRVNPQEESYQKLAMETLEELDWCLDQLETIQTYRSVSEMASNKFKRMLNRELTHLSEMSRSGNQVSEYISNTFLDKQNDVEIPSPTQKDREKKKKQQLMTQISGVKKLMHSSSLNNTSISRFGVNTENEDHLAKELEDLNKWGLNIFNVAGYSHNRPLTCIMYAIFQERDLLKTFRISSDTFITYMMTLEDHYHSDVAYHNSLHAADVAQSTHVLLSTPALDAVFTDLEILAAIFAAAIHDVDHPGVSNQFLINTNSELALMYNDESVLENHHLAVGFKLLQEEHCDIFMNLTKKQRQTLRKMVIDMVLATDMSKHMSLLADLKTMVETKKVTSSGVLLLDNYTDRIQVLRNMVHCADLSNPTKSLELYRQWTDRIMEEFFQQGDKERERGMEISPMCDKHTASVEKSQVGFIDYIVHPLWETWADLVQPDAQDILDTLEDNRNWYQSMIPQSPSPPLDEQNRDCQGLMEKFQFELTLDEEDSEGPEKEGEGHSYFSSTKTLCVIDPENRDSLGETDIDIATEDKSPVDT

Row | PDE4 B1 inhibitory effect at 20 nM (PDE4B1) | PDE4 D2 inhibitory effect at 20 nM (PDE4D2) | PDE4 A1 inhibitory effect at 20 nM (PDE4A1A) | Structure (SMILES)
1 | + | + | + | CCOc1nc([C@@H](CS(C)(=O)=O)n2c(=O)n(C)c3cc(-c4ccc(C)cc4C)cnc32)ccc1OC [Ex. 100, (S)-6-(2,4-dimethylphenyl)-3-(1-(6-ethoxy-5-methoxypyridin-2-yl)-2-(methylsulfonyl)ethyl)-1-methyl-1H-imidazo[4,5-b]pyridin-2(3H)-one]
2 | + | + | + | CCOc1nc([C@@H](CS(C)(=O)=O)N2Cc3cccc(NC(C)=O)c3C2=O)ccc1OC [Ex. 215, (S)—N-(2-(1-(6-ethoxy-5-methoxypyridin-2-yl)-2-(methylsulfonyl)ethyl)-3-oxoisoindolin-4-yl)acetamide]
3 | + | + | + | CCOc1nc([C@H](CS(C)(=O)=O)N2Cc3cccc(NC(=O)C4CC4)c3C2=O)ccc1OC [Ex. 218, (R)—N-(2-(1-(6-ethoxy-5-methoxypyridin-2-yl)-2-(methylsulfonyl)ethyl)-3-oxoisoindolin-4-yl)cyclopropanecarboxamide]
4 | + | + | + | CCOc1nc([C@@H](CS(C)(=O)=O)n2c(=O)n(C)c3cc(-c4ccccn4)ccc32)ccc1OC [Ex. 196, (S)-1-(1-(6-ethoxy-5-methoxypyridin-2-yl)-2-(methylsulfonyl)ethyl)-3-methyl-5-(pyridin-2-yl)-1H-benzo[d]imidazol-2(3H)-one]
5 | + | + | + | CCOc1nc([C@@H](CS(C)(=O)=O)n2c(=O)[nH]c3cc(C(=O)OC(C)C)ccc32)ccc1OC [Ex. 213, (S)-isopropyl 1-(1-(6-ethoxy-5-methoxypyridin-2-yl)-2-(methylsulfonyl)ethyl)-2-oxo-2,3-dihydro-1H-benzo[d]imidazole-5-carboxylate]
6 | + | + | + | CCOc1nc([C@@H](CS(C)(=O)=O)n2c(=O)[nH]c3cc(-c4ccccc4F)ccc32)ccc1OC [Ex. 132, (S)-1-(1-(6-ethoxy-5-methoxypyridin-2-yl)-2-(methylsulfonyl)ethyl)-5-(2-fluorophenyl)-1H-benzo[d]imidazol-2(3H)-one]
7 | + | + | + | CCOc1nc([C@@H](CS(C)(=O)=O)n2c(=O)n(C)c3cc(-c4ccc(F)cc4)ccc32)ccc1OC [Ex. 137, (S)-1-(1-(6-ethoxy-5-methoxypyridin-2-yl)-2-(methylsulfonyl)ethyl)-3-methyl-5-(4-fluorophenyl)-1H-benzo[d]imidazol-2(3H) one]
8 | + | + | + | CCOc1nc([C@@H](CS(C)(=O)=O)n2c(=O)n(C)c3cc(-c4ccc(F)cc4F)cnc32)ccc1OC [Ex. 95, (S)-6-(2,4-difluorophenyl)-3-(1-(6-ethoxy-5-methoxypyridin-2-yl)-2-(methylsulfonyl)ethyl)-1-methyl-1H-imidazo[4,5-b]pyridin-2(3H)-one]
9 | + | + | + | CCOc1nc([C@@H](CS(C)(=O)=O)n2c(=O)n(C)c3cc(-c4cccc(F)c4F)cnc32)ccc1OC [Ex. 91, (S)-6-(2,3-difluorophenyl)-3-(1-(6-ethoxy-5-methoxypyridin-2-yl)-2-(methylsulfonyl)ethyl)-1-methyl-1H-imidazo[45-b]pyridin-2(3H)-one]
10 | + | + | + | CCOc1nc([C@@H](CS(C)(=O)=O)n2c(=O)[nH]c3c(C)c(-c4cccc(OC)c4F)cnc32)ccc1OC [Ex. 42, (S)-6-(2-fluoro-3-methoxyphenyl)-3-(1-(6-ethoxy-5-methoxypyridin-2-yl)-2-(methylsulfonyl)ethyl)-7-methyl-1H-imidazo[4,5-b]pyridin-2(3H)-one]
11 | + | + | + | CCOc1nc([C@@H](CS(C)(=O)=O)n2c(=O)n(CC(F)F)c3c(C)c(-c4ccccc4C)cnc32)ccc1OC(C)C [Ex. 72, (S)-1-(2,2-difluoroethyl)-3-(1-(6-ethoxy-5-isopropoxypyridin-2-yl)-2-(methylsulfonyl)ethyl)-7-methyl-6-(o-methylphenyl)-1H-imidazo[4,5-b]pyridin-2(3H)-one]
12 | + | + | + | CCOc1nc([C@@H](CS(C)(=O)=O)n2c(=O)[nH]c3cc(-c4cc(F)c(F)cc4F)ccc32)ccc1OC [Ex. 158, (S)-5-(2,4,5-trifluorophenyl)-1-(1-(6-ethoxy-5-methoxypyridin-2-yl)-2-(methylsulfonyl)ethyl)-1H-benzo[d]imidazol-2(3H)-one]
13 | + | + | + | CCOc1nc([C@@H](CS(C)(=O)=O)n2c(=O)[nH]c3c(C)c(-c4cccc(C)c4F)cnc32)ccc1OC [Ex. 39, (S)-6-(2-fluoro-3-methylphenyl)-3-(1-(6-ethoxy-5-methoxypyridin-2-yl)-2-(methylsulfonyl)ethyl)-7-methyl-1H-imidazo[4,5-b]pyridin-2(3H)-one]
14 | + | + | + | CCOc1nc([C@@H](CS(C)(=O)=O)n2c(=O)n(C)c3cc(-c4cccc(F)c4C)ccc32)ccc1OC [Ex. 174, (S)-5-(3-fluoro-2-methylphenyl)-1-(1-(6-ethoxy-5-methoxypyridin-2-yl)-2-(methylsulfonyl)ethyl)-3-methyl-1H-benzo[d]imidazol-2(3H)-one]
15 | + | + | + | CCOc1nc([C@@H](CS(C)(=O)=O)n2c(=O)[nH]c3cc(-c4ccc(OC)cc4F)ccc32)ccc1OC [Ex. 184, (S)-5-(2-fluoro-4-methoxyphenyl)-1-(1-(6-ethoxy-5-methoxypyridin-2-yl)-2-(methylsulfonyl)ethyl)-1H-benzo[d]imidazol-2(3H)-one]
16 | + | + | + | CCOc1nc([C@@H](CS(C)(=O)=O)n2c(=O)[nH]c3cc(-c4ccccn4)cnc32)ccc1OC [Ex. 122, (S)-6-(pyridin-2-yl)-3-(1-(6-ethoxy-5-methoxypyridin-2-yl)-2-(methylsulfonyl)ethyl)-1H-imidazo[4,5-b]pyridin-2(3H)-one]
17 | + | + | + | CCOc1nc([C@@H](CS(C)(=O)=O)n2c(=O)[nH]c3cc(Br)ccc32)ccc1OC [Ex. 129, (S)-5-bromo-1-(1-(6-ethoxy-5-methoxypyridin-2-yl)-2-(methylsulfonyl)ethyl)-1H-benzo[d]imidazol-2(3H)-one]
18 | − | − | − | CCOc1nc([C@H](CS(C)(=O)=O)n2c(=O)n(CC)c3c(C)c(-c4ccc(F)cc4)cnc32)ccc1OC [Ex. 49, (R)-3-(1-(6-ethoxy-5-methoxypyridin-2-yl)-2-(methylsulfonyl)ethyl)-1-ethyl-6-(4-fluorophenyl)-7-methyl-1H-imidazo[4,5-b]pyridin-2(3H)-one]
19 | + | + | + | CCOc1nc([C@@H](CS(C)(=O)=O)n2c(=O)n(C)c3cc(-c4ccccn4)cnc32)ccc1OC [Ex. 123, (S)-3-(1-(6-ethoxy-5-methoxypyridin-2-yl)-2-(methylsulfonyl)ethyl)-1-methyl-6-(pyridin-2-yl)-1H-imidazo[4,5-b]pyridin-2(3H)-one]
20 | − | − | − | CCOc1nc([C@@H](CS(C)(=O)=O)n2c(=O)[nH]c3c(C)c(-c4ccccc4C#N)cnc32)ccc1OC [Ex. 15, (S)-2-(3-(1-(6-ethoxy-5-methoxypyridin-2-yl)-2-(methylsulfonyl)ethyl)-7-methyl-2-oxo-2,3-dihydro-1H-imidazo[4,5-b]pyridin-6-yl)benzonitrile]
21 | + | + | + | CCOc1nc([C@@H](CS(C)(=O)=O)n2c(=O)n(C)c3cc(-c4ccc(OC)cc4F)ccc32)ccc1OC [Ex. 185, (S)-5-(2-fluoro-4-methoxyphenyl)-1-(1-(6-ethoxy-5-methoxypyridin-2-yl)-2-(methylsulfonyl)ethyl)-3-methyl-1H-benzo[d]imidazol-2(3H)-one]
22 | + | + | + | CCOc1nc([C@@H](CS(C)(=O)=O)n2c(=O)n(C)c3cc(-c4ccccc4CC)cnc32)ccc1OC [Ex. 82, (S)-3-(1-(6-ethoxy-5-methoxypyridin-2-yl)-2-(methylsulfonyl)ethyl)-6-(2-ethylphenyl)-1-methyl-1H-imidazo[4,5-b]pyridin-2(3H)-one]

From patent publication US20230141101A1, “PDE4 INHIBITOR COMPOUND AND MEDICAL USE THEREOF” (Suzhou Longbotai Pharmaceuticals Co., Ltd., priority 2020, published 2023)
